Nine compounds from PubChem BioAssay (NCI) can be followed below.

Some test systems named below: SF-268 CNS; UACC-62 melanoma; NCI-H23 lung; HOP-92 NSCLC; IGROV1 ovarian; UACC-257 melanoma; TK-10 renal; SK-MEL-2 melanoma; COLO 205 colon; HL-60(TB) leukemia; SNB-19 CNS; U251 CNS; A549 NSCLC; SK-MEL-28 melanoma; M14 melanoma; NCI-H226 lung.
Holding throughout (experiment): growth of human tumour cells (NCI), 48 h

Several values for one entry are separate records, joined by “and”; a condition that tells them apart may be missing. Equal values may be shown once.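 A five-concentration, 48-hour dose response in 96-well plates underlies each endpoint, interpolated linearly between surrounding concentrations. GI50: concentration for 50% inhibition of growth. TGI denotes the concentration required for complete inhibition of growth.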

On to `CCOC(=O)c1csc(NC(=O)CN2CCCCC2)n1`, for which the TGI in the test with SF-268 CNS, with UACC-62 melanoma, in the test with NCI-H23 lung, in the test on HOP-92 NSCLC, in the test on IGROV1 ovarian and in the test on UACC-257 melanoma was above 100 µM throughout. Further, the TGI with TK-10 renal, in the test on SK-MEL-2 melanoma, in the test with COLO 205 colon, in the test with HL-60(TB) leukemia, with SNB-19 CNS and in the test with U251 CNS was above 100 µM in each case. For the same compound, the TGI with A549 NSCLC, with SK-MEL-28 melanoma and in the test with M14 melanoma was above 100 µM throughout.

`CC(C)OP(=O)(OC(C)C)c1nn(-c2ccc([N+](=O)[O-])cc2)c(=N)s1`: the TGI with SF-268 CNS, in the test on UACC-62 melanoma, in the test with NCI-H23 lung, with HOP-92 NSCLC, in the test on IGROV1 ovarian and with UACC-257 melanoma was above 100 µM each time. The TGI in the test with TK-10 renal, in the test on COLO 205 colon, in the test on HL-60(TB) leukemia, in the test with SNB-19 CNS, in the test with U251 CNS and in the test with A549 NSCLC was above 100 µM in each case. The TGI in the test with SK-MEL-28 melanoma and in the test on M14 melanoma was above 100 µM throughout.

`O=c1cnn(C/C=C/CP(=O)(O)O)c(=O)[nH]1`: the TGI in the test with SF-268 CNS, in the test on NCI-H23 lung, in the test on HOP-92 NSCLC, in the test on IGROV1 ovarian, in the test with UACC-257 melanoma and in the test on TK-10 renal was above 100 µM each time. Further, the TGI in the test on SK-MEL-2 melanoma, in the test on COLO 205 colon, in the test with HL-60(TB) leukemia, in the test on SNB-19 CNS, in the test on U251 CNS and in the test on A549 NSCLC was above 100 µM throughout. For the same compound, the TGI in the test on SK-MEL-28 melanoma, with M14 melanoma and in the test on NCI-H226 lung was above 100 µM throughout.

As for `CC1=CC(=C(c2ccc(N)c(C)c2)c2ccc(N)c(C)c2)C=CC1=N`, the TGI with SF-268 CNS was determined as 17.8 µM; in the test on UACC-62 melanoma, 10.2 µM; in the test on NCI-H23 lung, 12.5 µM; in the test on HOP-92 NSCLC it was 14.2 µM; in the test with IGROV1 ovarian it was 71.8 µM; in the test with UACC-257 melanoma it was 15.7 µM. Further, the TGI in the test with TK-10 renal was above 66.2 µM; with SK-MEL-2 melanoma it was 7.48 µM; in the test on COLO 205 colon, 5.87 µM; in the test with HL-60(TB) leukemia, 17.5 µM; in the test on SNB-19 CNS, 15.8 µM; with U251 CNS, 12.8 µM. For the same compound, the TGI in the test with A549 NSCLC amounted to 28.6 µM; with SK-MEL-28 melanoma it was 19.2 µM; in the test on M14 melanoma it was 18.3 µM; in the test with NCI-H226 lung it was 33.6 µM.

Regarding `O=S(=O)(O)c1cc(S(=O)(=O)O)c2c(N=Nc3ccccc3)c(O)ccc2c1`, the TGI in the test with SF-268 CNS, in the test on UACC-62 melanoma, in the test with NCI-H23 lung, in the test with HOP-92 NSCLC, in the test on IGROV1 ovarian and in the test with UACC-257 melanoma was above 100 µM each time. Moreover, the TGI with TK-10 renal, in the test with SK-MEL-2 melanoma, with COLO 205 colon, in the test with SNB-19 CNS, in the test on U251 CNS and in the test on A549 NSCLC was above 100 µM in each case. Further, the TGI in the test with SK-MEL-28 melanoma, in the test with M14 melanoma and with NCI-H226 lung was above 100 µM each time.

In the case of `COC(=O)C1C(O)C(C)C(O)C(C)/C=C\C=C(C)C(=O)Nc2c(C)c(OC(C)=O)c3c(c2O)C(=O)C(C)=C2OCOC(=C23)C(C)=CC(C)(O)C(O)C(C)C1O` (stereo not given), the GI50 in the test with SF-268 CNS is 39.4 µM; in the test with UACC-62 melanoma, 17 µM and > 100 µM; with NCI-H23 lung, 32.6 µM and > 100 µM; in the test on SK-MEL-28 melanoma it was 21.7 µM. Further, the TGI in the test on SF-268 CNS was above 100 µM; with UACC-62 melanoma, 37.7 µM and > 100 µM; with NCI-H23 lung, 58.9 µM and > 100 µM; in the test with HOP-92 NSCLC, above 100 µM; in the test with IGROV1 ovarian, above 100 µM; in the test with UACC-257 melanoma, 55.7 µM and 62.5 µM. In addition, the TGI is above 100 µM with TK-10 renal; 36.2 µM and > 100 µM with SK-MEL-2 melanoma; 36.3 µM and 58.6 µM with COLO 205 colon; 42.2 µM and > 100 µM with HL-60(TB) leukemia; above 100 µM in the test with SNB-19 CNS; above 100 µM in the test on U251 CNS. Also, the TGI in the test with A549 NSCLC was above 100 µM; in the test with SK-MEL-28 melanoma, 44.7 µM and > 100 µM; in the test on M14 melanoma it was above 100 µM; in the test on NCI-H226 lung, above 100 µM.

As for `O=S(=O)(O)c1cccc2ccc(O)c(N=Nc3ccc(S(=O)(=O)c4ccc(N=Nc5c(O)ccc6cccc(S(=O)(=O)O)c56)cc4)cc3)c12`, the TGI in the test with SF-268 CNS, in the test with UACC-62 melanoma, in the test on NCI-H23 lung, with HOP-92 NSCLC, in the test on IGROV1 ovarian and with UACC-257 melanoma was above 100 µM in each case. Further, the TGI in the test with TK-10 renal, in the test on SK-MEL-2 melanoma, in the test on COLO 205 colon, in the test on HL-60(TB) leukemia, in the test on SNB-19 CNS and in the test on U251 CNS was above 100 µM each time. Further, the TGI in the test with A549 NSCLC, in the test with SK-MEL-28 melanoma, in the test on M14 melanoma and in the test with NCI-H226 lung was above 100 µM each time.

With `COC1C(=[N+]=[N-])C(=O)NC(=O)N1C1OC(COC(c2ccccc2)(c2ccccc2)c2ccccc2)C(O)C1O` (stereo not given), the TGI is 35.7 µM with SF-268 CNS; 30.5 µM in the test on UACC-62 melanoma; 34.8 µM in the test with NCI-H23 lung; 47.5 µM in the test on IGROV1 ovarian; 38.4 µM in the test on SK-MEL-2 melanoma; 38 µM in the test with COLO 205 colon. The TGI worked out at 46.7 µM in the test with HL-60(TB) leukemia; 34 µM with SNB-19 CNS; 35.5 µM with U251 CNS; 31.9 µM in the test on A549 NSCLC; 31.2 µM in the test on SK-MEL-28 melanoma; 34.6 µM in the test on M14 melanoma. In the test on NCI-H226 lung, this compound came in with a TGI of 32.1 µM.

Regarding `COc1cccc2c1C(=O)c1c(O)c3c(c(O)c1C2=O)CC(O)(C(C)=O)CC3OC1CC([N+](C)(C)C)C(O)C(C)O1` (stereo not given), the TGI with SF-268 CNS, in the test with UACC-62 melanoma, in the test with NCI-H23 lung, in the test with HOP-92 NSCLC, with IGROV1 ovarian and in the test with UACC-257 melanoma was above 100 µM throughout. The TGI in the test on TK-10 renal, in the test with SK-MEL-2 melanoma, in the test with COLO 205 colon, in the test on HL-60(TB) leukemia, in the test with SNB-19 CNS and in the test on U251 CNS was above 100 µM each time. Moreover, the TGI with A549 NSCLC, with SK-MEL-28 melanoma, in the test on M14 melanoma and in the test on NCI-H226 lung was above 100 µM each time.
